Counter-ions that a name gives are not always drawn.
How the values were obtained:
human μ-opiate receptor = human μ-opiate receptor (Homo sapiens, UniProt P35372); experiment: μ binding: [3H]-naloxone displacement, membrane preparation of CHO-K1 cells expressing the human μ-opiate receptor; settings: [3H]-naloxone 1 nmole/l; Cheng-Prusoff conversion; read-out: μ-Opioid receptor, Ki value
Chain of human μ-opiate receptor (P35372 whole entry): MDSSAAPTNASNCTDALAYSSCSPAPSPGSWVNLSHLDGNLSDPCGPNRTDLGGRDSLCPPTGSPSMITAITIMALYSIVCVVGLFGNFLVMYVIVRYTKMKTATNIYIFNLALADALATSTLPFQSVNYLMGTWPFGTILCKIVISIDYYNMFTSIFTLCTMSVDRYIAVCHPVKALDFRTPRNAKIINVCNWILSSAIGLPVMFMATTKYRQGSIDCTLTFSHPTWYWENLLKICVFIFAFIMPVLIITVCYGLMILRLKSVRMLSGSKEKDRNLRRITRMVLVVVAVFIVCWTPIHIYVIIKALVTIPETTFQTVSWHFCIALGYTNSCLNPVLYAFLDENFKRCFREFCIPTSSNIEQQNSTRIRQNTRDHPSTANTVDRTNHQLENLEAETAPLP

SMILES	melting point [°C]	Ki (human μ-opiate receptor) [nM]
CN(C)C1(c2ccccc2)CCC2(CC1)SCCc1c2[nH]c2ncccc12 (stereo not drawn) (as salt: citrate)	246 to 253	–
CN(C)C1(c2ccccc2)CCC2(CC1)SCCc1c2[nH]c2ccncc12 (stereo not drawn) (as salt: citrate)	163 to 168	–
c1ccc(CC2(N3CCOCC3)CCC3(CC2)OCCc2c3[nH]c3ncccc23)cc1 (stereo not drawn) [Example 19, 4-benzyl-4-morpholino-spiro[cyclohexane-1,8′-(5,6,8,9-tetrahydropyrano[3,4-b]-7-azaindole)]]	–	2910
